Assay results from PubChem BioAssay AID330 (DTP/NCI, 2004).
“And” between values parts separate entries of the source, which are not always exact repeats. Equal entries are not always repeated. Toxic doses and inconclusive results are not listed. Rule for the calls: active = survival T/C of 150% or more; inactive = T/C below 125% in these data.

Test system: P388 leukemia ip, CD2F1 mice, survival T/C
Test: NCI In Vivo Anticancer Drug Screen. Data for tumor model P388 Leukemia (intraperitoneal) in CD2F1 (CDF1) mice
Details: endpoint: median survival time, higher = longer survival
How it was run: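 Mice carrying the transplanted tumor received test compound or vehicle. Survival was recorded in each group, and the value is the treated-group measurement divided by that of the vehicle-treated control group.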

[1] = dose: 25.0 mg/kg/injection, schedule: Q01DX009 (ip), vehicle: Klucel (hydroxypropylcellulose) (HPC)
[2] = dose: 50.0 mg/kg/injection, schedule: Q01DX009 (ip), vehicle: Klucel (hydroxypropylcellulose) (HPC)
[3] = dose: 100.0 mg/kg/injection, schedule: Q01DX009 (ip), vehicle: Klucel (hydroxypropylcellulose) (HPC)
[4] = dose: 200.0 mg/kg/injection, schedule: Q01DX009 (ip), vehicle: Klucel (hydroxypropylcellulose) (HPC)
[5] = dose: 12.5 mg/kg/injection, schedule: Q01DX009 (ip), vehicle: saline with Tween-80
[6] = dose: 25.0 mg/kg/injection, schedule: Q01DX009 (ip), vehicle: saline with Tween-80
[7] = dose: 50.0 mg/kg/injection, schedule: Q01DX009 (ip), vehicle: saline with Tween-80
[8] = dose: 25.0 mg/kg/injection, schedule: Q01DX009 (ip), vehicle: saline
[9] = dose: 50.0 mg/kg/injection, schedule: Q01DX009 (ip), vehicle: saline
[10] = dose: 50.0 mg/kg/injection, schedule: Q01DX005 (ip), vehicle: Klucel (hydroxypropylcellulose) (HPC)
[11] = dose: 100.0 mg/kg/injection, schedule: Q01DX005 (ip), vehicle: Klucel (hydroxypropylcellulose) (HPC)
[12] = dose: 200.0 mg/kg/injection, schedule: Q01DX005 (ip), vehicle: Klucel (hydroxypropylcellulose) (HPC)
[13] = dose: 100.0 mg/kg/injection, schedule: Q04DX003 (ip), vehicle: Klucel (hydroxypropylcellulose) (HPC)
[14] = dose: 200.0 mg/kg/injection, schedule: Q04DX003 (ip), vehicle: Klucel (hydroxypropylcellulose) (HPC)
[15] = dose: 1.0 mg/kg/injection, schedule: Q01DX009 (ip), vehicle: saline
[16] = dose: 50.0 mg/kg/injection, schedule: Q01DX005 (ip), vehicle: saline with Tween-80
[17] = dose: 100.0 mg/kg/injection, schedule: Q01DX005 (ip), vehicle: saline with Tween-80
[18] = dose: 200.0 mg/kg/injection, schedule: Q01DX005 (ip), vehicle: saline with Tween-80
[19] = dose: 100.0 mg/kg/injection, schedule: Q01DX001 (ip), vehicle: saline with Tween-80
[20] = dose: 200.0 mg/kg/injection, schedule: Q01DX001 (ip), vehicle: saline with Tween-80
[21] = dose: 400.0 mg/kg/injection, schedule: Q01DX001 (ip), vehicle: saline with Tween-80

Measured: T/C

CCC(O)(c1ccccc1)C(O)c1ccccc1 (centres undefined)
inactive: [1] 98 % of control | [2] 98 % of control | dose: 50.0 mg/kg/injection, schedule: Q01DX009 (ip), vehicle: saline + alcohol 102 % of control and 124 % of control | [3] 97 % of control | dose: 100.0 mg/kg/injection, schedule: Q01DX009 (ip), vehicle: saline + alcohol 99 % of control and 123 % of control | [4] 88 % of control | dose: 200.0 mg/kg/injection, schedule: Q01DX009 (ip), vehicle: saline + alcohol 98 % of control | dose: 400.0 mg/kg/injection, schedule: Q01DX009 (ip), vehicle: Klucel (hydroxypropylcellulose) (HPC) 96 % of control

COc1ccc(OC)c(NC2=C(Cl)C(=O)C(Nc3cc(OC)ccc3OC)=C(Cl)C2=O)c1
inactive: [5] 98 % of control | [6] 97 % of control | [7] 90 % of control | dose: 100.0 mg/kg/injection, schedule: Q01DX009 (ip), vehicle: saline with Tween-80 87 % of control | dose: 200.0 mg/kg/injection, schedule: Q01DX009 (ip), vehicle: saline with Tween-80 91 % of control

CCN(CC)C(=S)SCc1cc(C)c(O)c(C)c1
inactive: dose: 100.0 mg/kg/injection, schedule: Q01DX001 (ip), vehicle: saline 98 % of control | dose: 200.0 mg/kg/injection, schedule: Q01DX001 (ip), vehicle: saline 100 % of control | dose: 400.0 mg/kg/injection, schedule: Q01DX001 (ip), vehicle: saline 100 % of control

O.O=[N+]([O-])O.[NH2-].[NH2-].[Pt+2]
inactive: dose: 0.04 mg/kg/injection, schedule: Q01DX009 (ip), vehicle: other 118 % of control | dose: 0.16 mg/kg/injection, schedule: Q01DX009 (ip), vehicle: other 91 % of control
active: dose: 0.31 mg/kg/injection, schedule: Q01DX009 (ip), vehicle: other 150 % of control

C1CCN(CCCCN2CCCCC2)CC1
inactive: [8] 93 % of control | [9] 88 % of control

COc1cc(Cc2nc3n(O)cc(C)nc-3c(=N)n2)cc(OC)c1OC
inactive: dose: 12.5 mg/kg/injection, schedule: Q01DX009 (ip), vehicle: saline 99 % of control | [8] 105 % of control | [9] 108 % of control

O=C(Nc1ccc(S(=O)(=O)F)cc1)c1ccc2ccccc2c1O
inactive: [2] 103 % of control | [3] 94 % of control | [4] 91 % of control

CP1(=S)CC[C@H]2C3=C(CC[C@@H]21)CC(=O)CC3 (some centres undefined)
inactive: dose: 50.0 mg/kg/injection, schedule: Q01DX005 (ip), vehicle: saline + Tween-80 + alcohol 106 % of control | dose: 100.0 mg/kg/injection, schedule: Q01DX005 (ip), vehicle: saline + Tween-80 + alcohol 103 % of control | dose: 200.0 mg/kg/injection, schedule: Q01DX005 (ip), vehicle: saline + Tween-80 + alcohol 97 % of control

O=C(O)C[CH2][Sn](=[O])[CH2]CC(=O)O
inactive: [10] 101 % of control | [11] 101 % of control | [12] 102 % of control

CN1CCC/C1=C/C(=O)c1cccc([N+](=O)[O-])c1
inactive: [13] 108 % of control | [14] 106 % of control

CSCCCCCCSC
inactive: dose: 50.0 mg/kg/injection, schedule: Q04DX003 (ip), vehicle: saline with Tween-80 100 % of control | dose: 100.0 mg/kg/injection, schedule: Q04DX003 (ip), vehicle: saline with Tween-80 100 % of control | dose: 200.0 mg/kg/injection, schedule: Q04DX003 (ip), vehicle: saline with Tween-80 109 % of control

COc1cc(-c2cc(C(=O)O)c3cc4ccccc4cc3n2)cc(OC)c1OC
inactive: [2] 113 % of control | [3] 110 % of control | [4] 104 % of control

CN=C(N)N/N=C/c1c2ccccc2c(C)c2ccccc12
inactive: dose: 25.0 mg/kg/injection, schedule: Q04DX002 (ip), vehicle: saline 119 % of control | dose: 50.0 mg/kg/injection, schedule: Q04DX002 (ip), vehicle: saline 115 % of control

CC(/C=C(\C)N1CCCC1)=[N+]1CCCC1
inactive: dose: 0.12 mg/kg/injection, schedule: Q01DX009 (ip), vehicle: saline 111 % of control | dose: 0.25 mg/kg/injection, schedule: Q01DX009 (ip), vehicle: saline 111 % of control | dose: 0.5 mg/kg/injection, schedule: Q01DX009 (ip), vehicle: saline 108 % of control | [15] 109 % of control | dose: 2.0 mg/kg/injection, schedule: Q01DX009 (ip), vehicle: saline 109 % of control

CCN(CC)CCCC(C)Nc1cc(O)c2c(c1O)C(=O)c1ccccc1C2=O (centres undefined)
inactive: [16] 102 % of control | [17] 98 % of control | [18] 111 % of control

CC(=O)Nc1nc(CC(N)C(=O)O)c[se]1 (centres undefined)
inactive: [10] 97 % of control | [11] 97 % of control | [12] 97 % of control

O=C1CC2COc3ccc(OCCN4CCCC4)cc3C2=NN1c1ccccc1 (centres undefined)
inactive: [16] 103 % of control | [17] 103 % of control

c1ccc(/C(=N\Nc2ccccn2)c2ccccn2)cc1
inactive: [16] 112 % of control | [17] 117 % of control | [18] 108 % of control

O=C(O)CCCCSCCCCCCSCCCCC(=O)O
inactive: [10] 106 % of control | [11] 105 % of control | [12] 107 % of control

CCN(CC)c1c(C)nnc2c3cccnc3nn12
inactive: dose: 25.0 mg/kg/injection, schedule: Q01DX001 (ip), vehicle: saline with Tween-80 100 % of control | dose: 50.0 mg/kg/injection, schedule: Q01DX001 (ip), vehicle: saline with Tween-80 103 % of control | [19] 106 % of control and 97 % of control

Nn1c(=O)[nH][nH]c1=O
inactive: [1] 93 % of control | [2] 104 % of control | [3] 96 % of control | [4] 93 % of control

Cc1ccc(C2=C/C(=C/c3ccc(N(CCC#N)CCC#N)cc3)C(=O)O2)c(C)c1
inactive: [19] 95 % of control | [20] 95 % of control | [21] 87 % of control

Cc1ccc(N2C(=O)CC3(CCCCC3)C2=O)cc1[N+](=O)[O-]
inactive: [13] 93 % of control | [14] 97 % of control | dose: 400.0 mg/kg/injection, schedule: Q04DX003 (ip), vehicle: Klucel (hydroxypropylcellulose) (HPC) 99 % of control

CC(=O)OCC1OC(n2cccnc2=O)C(OC(C)=O)C1OC(C)=O (centres undefined)
inactive: dose: 50.0 mg/kg/injection, schedule: Q01DX005 (ip), vehicle: saline 107 % of control | dose: 100.0 mg/kg/injection, schedule: Q01DX005 (ip), vehicle: saline 107 % of control | dose: 200.0 mg/kg/injection, schedule: Q01DX005 (ip), vehicle: saline 107 % of control | dose: 400.0 mg/kg/injection, schedule: Q01DX005 (ip), vehicle: saline 102 % of control

O=C(CCCCCCCC(=O)Nc1ccc2c(=O)c3ccccc3[nH]c2c1)Nc1ccc2c(=O)c3ccccc3[nH]c2c1
inactive: [16] 103 % of control | [17] 110 % of control | [18] 92 % of control

CC(C)COC1OCCCC1C(OCC(C)C)C(C)C (centres undefined)
inactive: dose: 100.0 mg/kg/injection, schedule: Q01DX009 (ip), vehicle: saline 108 % of control | dose: 200.0 mg/kg/injection, schedule: Q01DX009 (ip), vehicle: saline 113 % of control | dose: 400.0 mg/kg/injection, schedule: Q01DX009 (ip), vehicle: saline 99 % of control

COc1cc([C@@H]2c3cc4c(c(O)c3C[C@H]3COC(=O)[C@@H]32)OCO4)cc(OC)c1O
active: [15] 150 % of control
inactive: dose: 0.25 mg/kg/injection, schedule: Q01DX009 (ip), vehicle: suspension in saline 121 % of control | dose: 1.0 mg/kg/injection, schedule: Q01DX009 (ip), vehicle: suspension in saline 99 % of control

CC1CCCC/C1=N/SC(c1ccccc1)(c1ccccc1)c1ccccc1 (centres undefined)
inactive: [19] 91 % of control | [20] 89 % of control | [21] 87 % of control

CC(C(=O)O)c1ccc2c(c1)Cc1ccccc1-2 (centres undefined)
inactive: [5] 108 % of control | [6] 106 % of control | [7] 105 % of control and 86 % of control
